Laboratory results taken from US20200345795A1, “MODULATION OF INTESTINAL MICROBIOTA IN PRE-DIABETES AND TYPE 2 DIABETES” (Medlab IP Pty Ltd, priority 2017, published 2020).

System: intestinal microbiota
Test: Faecal microbial profile (16S rRNA gene sequencing, MALDI-TOF) in randomised placebo-controlled trial
Format: in vivo, human
Experimental: The study described herein was a pilot, single site, randomised, double blind, placebo-controlled trial. Ethical approval was granted by the Sydney Local Health District Human Research Ethics Committee, RPA Hospital, Sydney, Australia. The study was carried out according to the Declaration of Helsinki, the National Health and Medical Research Council National Statement on Ethical Conduct in Research Involving Humans and the Notes for Guidance on Good Clinical Practice as adopted by the Australian Therapeutic Goods Administration and the International Conference on Harmonisation Good Clinical Practise guidelines. Written informed consent was obtained from participants before enrolment.
The active product administered was a capsule containing 5×10^10 colony forming units (cfu) of a multi-strain probiotic combination of Lactobacillus plantarum, Lactobacillus bulgaricus, Lactobacillus gasseri, Bifidobacterum breve, Bifidobacterium animalis subsp. lactis, Bifidobacterium bifidum, Streptococcus thermophilus and Saccharomyces boulardii. The placebo was a capsule containing 50 mg maltodextrin. The probiotic and placebo capsules were opaque white in colour and looked and smelled identical. […]
Faecal bacterial profiles were determined using the Ion S5 next-generation sequencing platform (Thermo Fisher) and faecal yeasts were identified by matrix-assisted laser desorption ionization time-of-flight mass spectrometry (MALDI-TOF). […] After extraction, DNA was quantified in a Qubit 2.0 Fluorometer (Invitrogen, Thermo Fisher). […] PCR products were quantified and their quality was evaluated by electrophoretic fractionation in 2% agarose gels (E-Gel, EX Agarose Gel, Thermo Fisher). […]

**Q.** Which results are given for `CN(C)C(=N)NC(=N)N` [metformin, N,N-dimethylimidodicarbonimidic diamide]?
**A.** intestinal microbial community (beta diversity) at species and genera level (participants taking vs not taking metformin, p=0.002 (species) and 0.036 (genera)): differed from those not taking metformin; effect on intestinal microbiota at the family level (participants taking vs not taking metformin, p=0.56): no effect; relative abundance of Akkermansia municiphila (those taking metformin in the placebo group, in contrast to the probiotic group): lower relative abundance
